In patent US8546375B2, “(3-(4-(aminomethyl)phenoxy or phenylthio)azetidin-1-yl)(5-phenyl-1,3,4-oxadiazol-2-yl)methanone compounds” (AstraZeneca AB, priority 2010, dated 2013):
Structures can show the parent of a compound that is named as a salt. Where two headings read alike, the source gives them in different places.

Biological target: T1, Melanin Concentrating Hormone Receptor 1 (MCHR1) (Homo sapiens, UniProt Q99705)
T1 construct: expressed in transfected cells
Experiment: MCHR1 Receptor Activation Assay (GTPγ^35S)
Type: biochemical

[1] = separated enantiomers of Example 84 (chiral chromatography fractions), assay not given, read-out: IC50
[2] = when tested in the above referenced assays (MCH binding assay; MCHR1 receptor activation assay), read-out: IC50 value

T1 sequence (Q99705 whole entry): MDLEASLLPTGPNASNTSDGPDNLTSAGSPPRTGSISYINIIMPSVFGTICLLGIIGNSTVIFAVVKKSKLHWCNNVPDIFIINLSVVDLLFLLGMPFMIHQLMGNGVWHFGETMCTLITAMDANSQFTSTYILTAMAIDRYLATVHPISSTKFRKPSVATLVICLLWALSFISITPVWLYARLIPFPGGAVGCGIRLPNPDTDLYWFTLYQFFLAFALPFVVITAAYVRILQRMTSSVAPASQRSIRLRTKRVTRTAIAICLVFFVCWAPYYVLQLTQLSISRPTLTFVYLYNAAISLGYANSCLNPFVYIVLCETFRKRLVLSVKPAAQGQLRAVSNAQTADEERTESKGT

SMILES	IC50 (read-out: GTPγ^35S IC50)	also measured
COc1ccc(-c2nnc(C(=O)N3CC(Oc4ccc(CN5CCC(C)(CO)C5)cc4)C3)o2)cc1 (single isomer, unassigned; (+)) [Example E2, (+)(3-(4-((3-(hydroxymethyl)-3-methylpyrrolidin-1-yl)methyl)phenoxy)azetidin-1-yl)(5-(4-methoxyphenyl)-1,3,4-oxadiazol-2-yl)methanone]	–	IC50 [1]: 24 nM
COc1ccc(-c2nnc(C(=O)N3CC(Oc4ccc(CN5CCC(C)(CO)C5)cc4)C3)o2)cc1 (single isomer, unassigned; (-)) [Example E1, (−)(3-(4-((3-(hydroxymethyl)-3-methylpyrrolidin-1-yl)methyl)phenoxy)azetidin-1-yl)(5-(4-methoxyphenyl)-1,3,4-oxadiazol-2-yl)methanone]	–	IC50 [1]: 28 nM
COc1ccc(-c2nnc(C(=O)N3CC(Oc4ccc(CN(C)C)c(OC(F)F)c4)C3)o2)cc1 [(3-(3-(difluoromethoxy)-4-((dimethylamino)methyl)phenoxy)azetidin-1-yl)(5-(4-methoxyphenyl)-1,3,4-oxadiazol-2-yl)methanone]	–	IC50 [2]: ≥ 100 nM
COCCN(CCOC)Cc1ccc(OC2CN(C(=O)c3nnc(-c4ccccc4)o3)C2)cc1 [(3-(4-((bis(2-methoxyethyl)amino)methyl)phenoxy)azetidin-1-yl)(5-phenyl-1,3,4-oxadiazol-2-yl)methanone]	–	IC50 [2]: ≥ 100 nM
O=C(c1nnc(-c2ccccc2)o1)N1CC(Oc2ccc(CNC3COC3)cc2)C1 [(3-(4-((oxetan-3-ylamino)methyl)phenoxy)azetidin-1-yl)(5-sphenyl-1,3,4-oxadiazol-2-yl)methanone]	–	IC50 [2]: ≥ 100 nM
O=C(c1nnc(-c2ccc(Cl)cc2)o1)N1CC(Oc2ccc(CN3CCCC3)cc2)C1 [Example 1, (5-(4-Chlorophenyl)-1,3,4-oxadiazol-2-yl)(3-(4-(pyrrolidin-1-ylmethyl)phenoxy)azetidin-1-yl)methanone]	7 nM	–
O=C(c1nnc(-c2ccccc2)o1)N1CC(Oc2ccc(CN3CCCC3)cc2)C1 [Example 3, (5-Phenyl-1,3,4-oxadiazol-2-yl)(3-(4-(pyrrolidin-1-ylmethyl)phenoxy)azetidin-1-yl)methanone]	27 nM	–
O=C(c1nnc(-c2ccc(F)cc2)o1)N1CC(Oc2ccc(CN3CCCC3)cc2)C1 [Example 4, (5-(4-Fluorophenyl)-1,3,4-oxadiazol-2-yl)(3-(4-(pyrrolidin-1-ylmethyl)phenoxy)azetidin-1-yl)methanone]	20 nM	–
O=C(c1nnc(-c2ccc(C(F)(F)F)cc2)o1)N1CC(Oc2ccc(CN3CCCC3)cc2)C1 [Example 5, (3-(4-(Pyrrolidin-1-ylmethyl)phenoxy)azetidin-1-yl)(5-(4-(trifluoromethyl)phenyl)-1,3,4-oxadiazol-2-yl)methanone formate]	15 nM	–
Cc1ccc(-c2nnc(C(=O)N3CC(Oc4ccc(CN5CCCC5)cc4)C3)o2)cc1 [Example 6, (3-(4-(Pyrrolidin-1-ylmethyl)phenoxy)azetidin-1-yl)(5-p-tolyl-1,3,4-oxadiazol-2-yl)methanone hydrochloride]	19 nM	–
COc1cc(OC2CN(C(=O)c3nnc(-c4ccccc4)o3)C2)ccc1CN1CCOCC1 [Example 7, (3-(3-Methoxy-4-(morpholinomethyl)phenoxy)azetidin-1-yl)(5-phenyl-1,3,4-oxadiazol-2-yl)methanone]	21 nM	–
Cc1cc(CN2CCN(C)CC2)ccc1OC1CN(C(=O)c2nnc(-c3ccccc3)o2)C1 [Example 9, (3-(2-Methyl-4-((4-methylpiperazin-1-yl)methyl)phenoxy)azetidin-1-yl)(5-phenyl-1,3,4-oxadiazol-2-yl)methanone]	44 nM	–
COc1ccc(-c2nnc(C(=O)N3CC(Oc4ccc(CN5CCN(C)CC5)cc4C)C3)o2)cc1 [Example 10, (5-(4-Methoxyphenyl)-1,3,4-oxadiazol-2-yl)(3-(2-methyl-4-((4-methylpiperazin-1-yl)methyl)phenoxy)azetidin-1-yl)methanone]	41 nM	–
Cc1ccc(-c2nnc(C(=O)N3CC(Oc4ccc(CN5CCN(C)CC5)cc4C)C3)o2)cc1 [Example 11, (3-(2-Methyl-4-((4-methylpiperazin-1-yl)methyl)phenoxy)azetidin-1-yl)(5-p-tolyl-1,3,4-oxadiazol-2-yl)methanone]	51 nM	–
COc1ccc(-c2nnc(C(=O)N3CC(Oc4ccc(CN5CCOCC5)cc4C)C3)o2)cc1 [Example 12, (5-(4-Methoxyphenyl)-1,3,4-oxadiazol-2-yl)(3-(2-methyl-4-(morpholinomethyl)-phenoxy)azetidin-1-yl)methanone]	30 nM	–
Cc1ccc(-c2nnc(C(=O)N3CC(Oc4ccc(CN5CCOCC5)cc4C)C3)o2)cc1 [Example 13, (3-(2-Methyl-4-(morpholinomethyl)phenoxy)azetidin-1-yl)(5-p-tolyl-1,3,4-oxadiazol-2-yl)methanone]	29 nM	–
Cc1cc(CN2CCOCC2)ccc1OC1CN(C(=O)c2nnc(-c3ccccc3)o2)C1 [Example 14, (3-(2-Methyl-4-(morpholinomethyl)phenoxy)azetidin-1-yl)(5-phenyl-1,3,4-oxadiazol-2-yl)methanone]	30 nM	–
Cc1cc(CN2CCOCC2)ccc1OC1CN(C(=O)c2nnc(-c3ccc(Cl)cc3)o2)C1 [Example 15, (5-(4-Chlorophenyl)-1,3,4-oxadiazol-2-yl)(3-(2-methyl-4-(morpholinomethyl)phenoxy)azetidin-1-yl)methanone]	10 nM	–
COc1ccc(-c2nnc(C(=O)N3CC(Oc4ccc(CN(C)C)cc4C)C3)o2)cc1 [Example 17, (3-(4-((Dimethylamino)methyl)-2-methylphenoxy)azetidin-1-yl)(5-(4-methoxyphenyl)-1,3,4-oxadiazol-2-yl)methanone]	25 nM	–
Cc1ccc(-c2nnc(C(=O)N3CC(Oc4ccc(CN(C)C)cc4C)C3)o2)cc1 [Example 18, (3-(4-((Dimethylamino)methyl)-2-methylphenoxy)azetidin-1-yl)(5-p-tolyl-1,3,4-oxadiazol-2-yl)methanone]	25 nM	–
Cc1cc(CN2CCCC2)ccc1OC1CN(C(=O)c2nnc(-c3ccc(Cl)cc3)o2)C1 [Example 19, (5-(4-Chlorophenyl)-1,3,4-oxadiazol-2-yl)(3-(2-methyl-4-(pyrrolidin-1-ylmethyl)phenoxy)azetidin-1-yl)methanone]	6.5 nM	–
COc1ccc(-c2nnc(C(=O)N3CC(Oc4ccc(CN(C)C)c(C)c4)C3)o2)cc1 [Example 20, (3-(4-((Dimethylamino)methyl)-3-methylphenoxy)azetidin-1-yl)(5-(4-methoxyphenyl)-1,3,4-oxadiazol-2-yl)methanone]	24 nM	–
Cc1ccc(-c2nnc(C(=O)N3CC(Oc4ccc(CN(C)C)c(C)c4)C3)o2)cc1 [Example 22, (3-(4-((Dimethylamino)methyl)-3-methylphenoxy)azetidin-1-yl)(5-p-tolyl-1,3,4-oxadiazol-2-yl)methanone]	25 nM	–
CC(=O)N1CCN(Cc2ccc(OC3CN(C(=O)c4nnc(-c5ccccc5)o4)C3)cc2)CC1 [Example 23, 1-(4-(4-(1-(5-Phenyl-1,3,4-oxadiazole-2-carbonyl)azetidin-3-yloxy)benzyl)piperazin-1-yl)ethanone]	99 nM	–
COc1ccc(-c2nnc(C(=O)N3CC(Oc4ccc(CN5CCN(C(C)=O)CC5)cc4)C3)o2)cc1 [Example 24, 1-(4-(4-(1-(5-(4-Methoxyphenyl)-1,3,4-oxadiazole-2-carbonyl)azetidin-3-yloxy)benzyl)piperazin-1-yl)ethanone]	44 nM	–
